The structures appear in SMILES notation.

Data set [1] is classed as in vivo, male Sprague-Dawley rats. The following applies: oral, rats; for bioavailability after N-XBSD administration compared to the free drugs: same administration concentration.
The test system of another data set is P-gp. To be noted: cited from earlier work.

Turning to `OC[C@H]1O[C@@H](Oc2cc(O)cc(/C=C/c3ccc(O[C@@H]4O[C@H](CO)[C@@H](O)[C@H](O)[C@H]4O)cc3O)c2)[C@H](O)[C@@H](O)[C@@H]1O` [Mulberroside A, mulberroside A], the “mean AUC0-t increased in the N-XBSD group compared to the free drugs” value in data set [1] (N-XBSD vs free drugs) is given as 122.73%. Besides, the “bioavailability after N-XBSD administration compared to the free drugs” value in data set [1] is reported as “significantly higher”. For the same compound, the P-gp substrate entry in the data set on P-gp is listed as “substrates of P-gp”.
Turning to `O=C1C[C@@H](c2ccc(O[C@@H]3O[C@H](CO)[C@@H](O)[C@H](O)[C@H]3O)cc2)Oc2cc(O)ccc21` [Liquiritin, liquiritin], in data set [1] (p<0.05), the “mean AUC0-t in the N-XBSD group versus free drugs group” value is listed as “significantly higher”. The “bioavailability after N-XBSD administration compared to the free drugs” value in data set [1] is on record as “significantly higher”. In the data set on P-gp, the P-gp substrate result is reported as “substrates of P-gp”.
